# Data published in article PMC12090182, “Repurposing of the RIPK1-Selective Benzo[1,4]oxazepin-4-one Scaffold for the Development of a Type III LIMK1/2 Inhibitor” (ACS Chemical Biology, 2025).
# System: MRC-9 cells
# Test: Multiplex high-content viability assessment
# Type: cell-based
# Conditions: human fibroblast
# Method in brief: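 HEK293T and U2OS cells (DMEM) and MRC-9 fibroblasts (EMEM) exposed to compounds at 1 and 10 μM. Live-cell confocal imaging of cell shape and fluorescence before and at 12, 24 and 48 h. Normalized to 0.1% DMSO; biological duplicates with SEM.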
# [1] = 1 µM, 0 h after treatment, biological replicate 1
# [2] = 1 µM, 0 h after treatment, biological replicate 2
# [3] = 1 µM, 12 h after treatment, biological replicate 1
# [4] = 1 µM, 12 h after treatment, biological replicate 2
# [5] = 1 µM, 24 h after treatment, biological replicate 1
# [6] = 1 µM, 24 h after treatment, biological replicate 2
# [7] = 1 µM, 48 h after treatment, biological replicate 1
# [8] = 1 µM, 48 h after treatment, biological replicate 2
# [9] = 10 µM, 0 h after treatment, biological replicate 1
# [10] = 10 µM, 0 h after treatment, biological replicate 2
# [11] = 10 µM, 12 h after treatment, biological replicate 1
# [12] = 10 µM, 12 h after treatment, biological replicate 2
# [13] = 10 µM, 24 h after treatment, biological replicate 1
# [14] = 10 µM, 24 h after treatment, biological replicate 2
# [15] = 10 µM, 48 h after treatment, biological replicate 1
# [16] = 10 µM, 48 h after treatment, biological replicate 2
smiles,measurement,setting,value
CC(C)C(=O)Nc1ncc(C(=O)NCCN(Cc2ccccc2)C(=O)c2ccc(S(=O)(=O)Nc3ccccc3)cc2)s1 [TH470],Cell count normalized to cells treated with DMSO control,[1],0.8608
same,Cell count per well,[1],129
same,Population Fragmented Nuclei (%),[1],29.31%
same,Population Healthy Nuclei (%),[1],61.21%
same,Population Pyknosed Nuclei (%),[1],9.48%
same,Population apoptotic cell (%),[1],36.36%
same,Population cell that influence microtubule strucutre (%),[1],19.72%
same,Population with increased mitochondrial mass (%),[1],8.45%
same,Population with membrane disruption (%),[1],1.41%
same,Cell count normalized to cells treated with DMSO control,[2],0.9307
same,Cell count per well,[2],166
same,Population Fragmented Nuclei (%),[2],25.00%
same,Population Healthy Nuclei (%),[2],44.23%
same,Population Pyknosed Nuclei (%),[2],30.77%
same,Population apoptotic cell (%),[2],35.42%
same,Population cell that influence microtubule strucutre (%),[2],44.93%
same,Population with increased mitochondrial mass (%),[2],11.59%
same,Population with membrane disruption (%),[2],10.14%
same,Cell count normalized to cells treated with DMSO control,[3],0.8102
same,Cell count per well,[3],122
same,Population Fragmented Nuclei (%),[3],23.93%
same,Population Healthy Nuclei (%),[3],62.39%
same,Population Pyknosed Nuclei (%),[3],13.68%
same,Population apoptotic cell (%),[3],43.75%
same,Population cell that influence microtubule strucutre (%),[3],27.40%
same,Population with increased mitochondrial mass (%),[3],4.11%
same,Population with membrane disruption (%),[3],2.74%
same,Cell count normalized to cells treated with DMSO control,[4],0.8825
same,Cell count per well,[4],147
same,Population Fragmented Nuclei (%),[4],34.51%
same,Population Healthy Nuclei (%),[4],42.25%
same,Population Pyknosed Nuclei (%),[4],23.24%
same,Population apoptotic cell (%),[4],36.36%
same,Population cell that influence microtubule strucutre (%),[4],73.33%
same,Population with increased mitochondrial mass (%),[4],13.33%
same,Population with membrane disruption (%),[4],15.00%
same,Cell count normalized to cells treated with DMSO control,[5],0.8356
same,Cell count per well,[5],126
same,Population Fragmented Nuclei (%),[5],27.27%
same,Population Healthy Nuclei (%),[5],57.02%
same,Population Pyknosed Nuclei (%),[5],15.70%
same,Population apoptotic cell (%),[5],63.16%
same,Population cell that influence microtubule strucutre (%),[5],34.78%
same,Population with increased mitochondrial mass (%),[5],4.35%
same,Population with membrane disruption (%),[5],1.45%
same,Cell count normalized to cells treated with DMSO control,[6],0.9099
same,Cell count per well,[6],150
same,Population Fragmented Nuclei (%),[6],42.18%
same,Population Healthy Nuclei (%),[6],40.82%
same,Population Pyknosed Nuclei (%),[6],17.01%
same,Population apoptotic cell (%),[6],56.00%
same,Population cell that influence microtubule strucutre (%),[6],61.67%
same,Population with increased mitochondrial mass (%),[6],10.00%
same,Population with membrane disruption (%),[6],18.33%
same,Cell count normalized to cells treated with DMSO control,[7],0.8239
same,Cell count per well,[7],125
same,Population Fragmented Nuclei (%),[7],33.87%
same,Population Healthy Nuclei (%),[7],54.03%
same,Population Pyknosed Nuclei (%),[7],12.10%
same,Population apoptotic cell (%),[7],60.00%
same,Population cell that influence microtubule strucutre (%),[7],41.79%
same,Population with increased mitochondrial mass (%),[7],4.48%
same,Population with membrane disruption (%),[7],1.49%
same,Cell count normalized to cells treated with DMSO control,[8],0.9026
same,Cell count per well,[8],147
same,Population Fragmented Nuclei (%),[8],48.98%
same,Population Healthy Nuclei (%),[8],42.18%
same,Population Pyknosed Nuclei (%),[8],8.84%
same,Population apoptotic cell (%),[8],69.23%
same,Population cell that influence microtubule strucutre (%),[8],61.29%
same,Population with increased mitochondrial mass (%),[8],16.13%
same,Population with membrane disruption (%),[8],9.68%
same,Cell count normalized to cells treated with DMSO control,[9],1.121
same,Cell count per well,[9],168
same,Population Fragmented Nuclei (%),[9],21.21%
same,Population Healthy Nuclei (%),[9],57.58%
same,Population Pyknosed Nuclei (%),[9],21.21%
same,Population apoptotic cell (%),[9],25.71%
same,Population cell that influence microtubule strucutre (%),[9],17.89%
same,Population with increased mitochondrial mass (%),[9],6.32%
same,Population with membrane disruption (%),[9],1.05%
same,Cell count normalized to cells treated with DMSO control,[10],0.8074
same,Cell count per well,[10],144
same,Population Fragmented Nuclei (%),[10],27.54%
same,Population Healthy Nuclei (%),[10],50.00%
same,Population Pyknosed Nuclei (%),[10],22.46%
same,Population apoptotic cell (%),[10],38.71%
same,Population cell that influence microtubule strucutre (%),[10],49.28%
same,Population with increased mitochondrial mass (%),[10],15.94%
same,Population with membrane disruption (%),[10],2.90%
same,Cell count normalized to cells treated with DMSO control,[11],1.202
same,Cell count per well,[11],181
same,Population Fragmented Nuclei (%),[11],19.88%
same,Population Healthy Nuclei (%),[11],54.97%
same,Population Pyknosed Nuclei (%),[11],25.15%
same,Population apoptotic cell (%),[11],39.53%
same,Population cell that influence microtubule strucutre (%),[11],77.66%
same,Population with increased mitochondrial mass (%),[11],9.57%
same,Population with membrane disruption (%),[11],3.19%
same,Cell count normalized to cells treated with DMSO control,[12],0.9125
same,Cell count per well,[12],152
same,Population Fragmented Nuclei (%),[12],31.25%
same,Population Healthy Nuclei (%),[12],34.03%
same,Population Pyknosed Nuclei (%),[12],34.72%
same,Population apoptotic cell (%),[12],54.00%
same,Population cell that influence microtubule strucutre (%),[12],91.84%
same,Population with increased mitochondrial mass (%),[12],14.29%
same,Population with membrane disruption (%),[12],18.37%
same,Cell count normalized to cells treated with DMSO control,[13],1.167
same,Cell count per well,[13],176
same,Population Fragmented Nuclei (%),[13],24.85%
same,Population Healthy Nuclei (%),[13],52.66%
same,Population Pyknosed Nuclei (%),[13],22.49%
same,Population apoptotic cell (%),[13],57.89%
same,Population cell that influence microtubule strucutre (%),[13],78.65%
same,Population with increased mitochondrial mass (%),[13],19.10%
same,Population with membrane disruption (%),[13],1.12%
same,Cell count normalized to cells treated with DMSO control,[14],0.825
same,Cell count per well,[14],136
same,Population Fragmented Nuclei (%),[14],34.62%
same,Population Healthy Nuclei (%),[14],32.31%
same,Population Pyknosed Nuclei (%),[14],33.08%
same,Population apoptotic cell (%),[14],44.19%
same,Population cell that influence microtubule strucutre (%),[14],88.10%
same,Population with increased mitochondrial mass (%),[14],19.05%
same,Population with membrane disruption (%),[14],16.67%
same,Cell count normalized to cells treated with DMSO control,[15],1.081
same,Cell count per well,[15],164
same,Population Fragmented Nuclei (%),[15],23.18%
same,Population Healthy Nuclei (%),[15],54.97%
same,Population Pyknosed Nuclei (%),[15],21.85%
same,Population apoptotic cell (%),[15],48.48%
same,Population cell that influence microtubule strucutre (%),[15],89.16%
same,Population with increased mitochondrial mass (%),[15],22.89%
same,Population with membrane disruption (%),[15],0.00%
same,Cell count normalized to cells treated with DMSO control,[16],0.7798
same,Cell count per well,[16],127
same,Population Fragmented Nuclei (%),[16],44.35%
same,Population Healthy Nuclei (%),[16],37.90%
same,Population Pyknosed Nuclei (%),[16],17.74%
same,Population apoptotic cell (%),[16],63.64%
same,Population cell that influence microtubule strucutre (%),[16],89.36%
same,Population with increased mitochondrial mass (%),[16],17.02%
same,Population with membrane disruption (%),[16],17.02%
